Source: patent publication EP4796171A2 (Zealand Pharma A/S, priority 2017, dated 2018)
Where “and” joins values, the source holds several entries; their conditions need not be identical. Equal entries are not always repeated.

Key:
[1] = Phase 1 trial, PK profile of glepaglutide after SC injections in healthy subjects; format: in vivo, human; details: individual subjects; for Half-life of ZP2469 in the interval from 72 to 168 hours post dose: final data; for Half-life ZP2469: preliminary data
Description: A Phase 1 clinical trial to characterize the pharmacokinetic (PK) profiles of glepaglutide (ZP1848) and its primary active metabolites following once-weekly and once daily subcutaneous (SC) injections and after a single intravenous (IV) infusion in healthy subjects was conducted. This included evaluating the pharmacodynamic effects on plasma citrulline levels following SC dosing in healthy subjects. The trial confirmed the feasibility of dosage regimes in which GLP-2 analogues are administered to patients in weekly dosage regimes and compare weekly dosage regimes with daily dosing.
The trial design was a single-center, open-label, partially randomized, 3-part, parallel group trial to characterize the PK profile of glepaglutide administered by SC injection once daily for 7 days (Part 1), SC injection once weekly for 6 weeks (Part 2), and as a single IV infusion (Part 3) in healthy subjects.
Glepaglutide was supplied as an aqueous solution at concentrations of 2 and 10 mg/mL. • Group A: 1 mg glepaglutide once daily, given as single SC injections on Days 1 to 7. • Group B: 5 mg glepaglutide once daily, given as single SC injections on Days 1 to 7. • Group C: 5 mg glepaglutide once weekly, given as single SC injections on Days 1, 8, 15, 22, 29, and 36. • Group D: 10 mg glepaglutide once weekly, given as single SC injections on Days 1, 8, 15, 22, 29, and 36. • Group E: 1 mg glepaglutide, given as an IV infusion at a rate of 4 mg/h for 15 minutes on Day 1.
Blood samples were collected for the analysis of plasma concentrations of glepaglutide and its primary active metabolites, ZP2469 (ZP18481-34) and ZP2711 (ZP18481-35); samples were assayed using validated analytical methods. The following PK parameter estimates were calculated using standard non-compartmental methods: terminal elimination half-life (t1/2), total body clearance of drug after IV administration (CL; IV dose, parent drug only), apparent total clearance (CL/F; SC doses, parent drug only), volume of distribution at steady state (Vss; IV dose, parent drug only), apparent volume of distribution at steady state (Vss/F; SC doses, parent drug only), volume of distribution (Vz; IV dose, parent drug only), apparent volume of distribution (Vz/F; SC doses, parent drug only), maximum observed plasma concentration (Cmax), area under the plasma concentration-time curve (AUC) over a dosing interval (AUCT), AUC from time zero to infinity (AUCinf), AUC from time zero to the time of the last measurable concentration (AUClast), and time of the maximum observed plasma concentration (tmax). Metabolite exposure (based on Cmax, AUCT, and AUCinf) were determined for each group as a ratio of the 2 primary active metabolites, ZP2469 (ZP18481-34) and ZP2711 (ZP18481-35), relative to the glepaglutide parent drug.
The PK parameters estimates for glepaglutide, ZP2469 (ZP18481-34), and ZP2711 (ZP18481-35) were listed and summarized using standard descriptive statistics. The primary PK parameters are t1/2 for glepaglutide, ZP2469 (ZP18481-34), and ZP2711 (ZP18481-35); and CL (IV dose), CL/F (SC doses), Vss (IV dose), Vss/F (SC dose), Vz (IV dose), and Vz/F (SC doses) for glepaglutide. The half-life is calculated as LN(2)/ke where ÷ke is estimate from the slope of the terminal part of the LN(concentration) versus time curve, with repeats regressions of LN(concentration) values using the last three points with non-zero concentrations, then the last four points, last five points, etc. Points with a concentration value of zero are not included. Points prior to Cmax are not used. […] 2) ke must be calculated from at least three data points. 3) The estimated slope must be negative, so that its negative ke is positive. The results of the calculations carried out with preliminary data are shown in Table 4, while the results of the calculations with the complete final data set are shonw in Table 5. […]

[2] = Phase 2 clinical trial, PK profile of ZP1848 and metabolites in SBS patients; format: in vivo, human; details: for Conc.: plasma
Description: A phase 2 clinical trial was conducted to i.a. determine the PK profile of ZP1848 and metabolites in human SBS patients.
The study was designed as a randomized, cross-over and double-blinded with three different doses of ZP1848 (10 mg, 1 mg, 0.1 mg) in 16 SBS patients.
The 18 SBS patients (16 patients completed the study) were randomized evenly and in a double-blinded fashion to each of the six cross-over dose level combinations: 10 mg/1 mg, 10 mg/0.1 mg, 1 mg/10 mg, 1 mg/0.1 mg, 0.1 mg/10 mg, 0.1 mg/1 mg of ZP1848. The patients were injected once daily (QD) subcutaneously with the above doses of ZP1848.
Blood samples for PK analysis were collected on several study visits throughout the study period: the study comprised a 1st baseline balance study (4 days), a 1st treatment period (21 days) including a 1st treatment balance study (last 4 days of 1st treatment period), followed by a wash-out period (at least 4 weeks); and a 2nd baseline balance study (4 days), a 2nd treatment period (21 days) including a 2nd treatment balance study (last 4 days of 2nd treatment period) and a follow-up period (at least 4 weeks).
PK sampling was performed at visit 11 (1st treatment, balance study) and visit 17 (second day of 2nd baseline study - after a wash out period), and again at visit 25 (2nd treatment balance study) and at visit 29 (last day of follow-up period).
At day visit 11 and visit 25 a full PK profile in steady state was investigated. PK samples were taken prior to injection of ZP1848, and at the following time points (+/- 10 minutes) after trial product administration: 1h, 2h, 4h, 6h, 8h, 10h, 12h and 24h. Each PK sample contained 2 mL of blood, resulting in a total of […] blood drawn for PK purposes. The plasma sample was immediately stored at -80°C after sampling.
Plasma samples were analyzed after immunoaffinity extraction followed by liquid chromatography mass spectrometry (LC-MS/MS). For each patient plasma concentrations were used for calculation of the pharmacokinetic parameters using the non-compartmental approach in Excel. Plasma terminal elimination half-life (T½) was determined as In(2)/ke where ke is the magnitude of the slope of the log linear regression of the log concentration versus time profile during the terminal phase.

Half-life ZP2469 ([1]; Group D, 10 mg glepaglutide SC once weekly, after 1 dose): 52 h and 38 h and 43 h and 34 h
Substance: H-HGEGTFSSELATILDALAARDFIAWLIATKITDK-OH [ZP2469]
Half-life of ZP2469 in the interval from 72 to 168 hours post dose ([1]; Group A, 1 mg once daily, after 7 doses): 75 h and 87 h and 80 h and 54 h and 57 h
Half-life of ZP2469 in the interval from 72 to 168 hours post dose ([1]; Group B, 5 mg once daily, after 7 doses): 168 hr and 77 hr and 101 hr (2×) and 53 hr and 34 hr and 46 hr and 100 hr and 40 hr and 84 hr and 50 hr and 42 hr
Half-life of ZP2469 in the interval from 72 to 168 hours post dose ([1]; Group C, 5 mg once weekly, after 1 dose): 329 hr and 41 hr and 38 hr and 48 hr (2×) and 59 hr and 61 hr and 217 hr and 45 hr and 39 hr and 91 hr and 75 hr
Half-life of ZP2469 in the interval from 72 to 168 hours post dose ([1]; Group C, 5 mg once weekly, after 6 doses): 26 h and 35 h and 59 h and 75 h and 57 h and 43 h and 52 h and 107 h and 33 h and 68 h and 47 h and 65 h and 452 h
Half-life of ZP2469 in the interval from 72 to 168 hours post dose ([1]; Group D, 10 mg once weekly, after 1 dose): 66 hr and 54 hr and 120 hr and 36 hr and 46 hr and 35 hr and 60 hr and 26 hr and 158 hr and 53 hr and 43 hr (2×) and 33 hr and 45 hr and 38 hr
Half-life of ZP2469 in the interval from 72 to 168 hours post dose ([1]; Group D, 10 mg once weekly, after 6 doses): 60 hr (2×) and 55 hr and 74 hr and 58 hr and 70 hr and 59 hr and 30 hr and 102 hr and 53 hr and 42 hr and 48 hr and 56 hr and 17 hr
Half-life ZP2469 ([1]; Group A, 1 mg glepaglutide SC once daily, after 7 doses): 20 h and 95 h and 76 h and 36 h and 33 h and 87 h
Half-life ZP2469 ([1]; Group B, 5 mg glepaglutide SC once daily, after 7 doses): 75 h and 108 h and 209 h and 59 h and 139 h and 94 h
Half-life ZP2469 ([1]; Group C, 5 mg glepaglutide SC once weekly, after 1 dose): 38 hr (2×) and 100 hr and 17 hr and 48 hr and 20 hr
Half-life ZP2469 ([1]; Group C, 5 mg glepaglutide SC once weekly, after 6 doses): 11 h and 17 h and 16 h and 32 h and 40 h and 22 h
Half-life ZP2469 ([1]; Group D, 10 mg glepaglutide SC once weekly, after 6 doses): 60 h and 55 h and 74 h and 34 h and 58 h
plasma level ([2]; in words, relative to ZP1848 after administration of ZP1848): multiple times higher than that of ZP1848
Conc. ([2]; Day 0 (visit 11 or 25, treatment balance study), ZP1848 SC once daily, individual subjects): 2.22 nM and 0.556 nM and 3.64 nM and 4.75 nM and 4.66 nM and 4.49 nM and 1.04 nM and 14.7 nM and 6.77 nM and 4.34 nM and 4.94 nM
Conc. ([2]; Day 28-56 (visit 17 or 29, after wash-out/follow-up), individual subjects): 0.394 nM and 0.0528 nM and 0.0564 nM and 0.288 nM and 0.236 nM and 0.195 nM and 0.133 nM and 0.209 nM and 0.46 nM and 0.116 nM and 0.112 nM
Half-life ([2]; terminal, from Day 0 and wash-out/follow-up concentrations, individual subjects): 5.2 days and 7.9 days and 8.7 days (2×) and 11 days (2×) and 7.2 days (2×) and 12 days and 9.5 days and 9.6 days
